Source: article PMC6222614, “Disubstituted 4-Chloro-3-nitrophenylthiourea Derivatives: Antimicrobial and Cytotoxic Studies” (Molecules : A Journal of Synthetic Chemistry and Natural …, 2018)
pEC50: −log10 of the molar value. Converted amounts (≈) assume the structure as drawn.

Assays:
B. subtilis ATCC 6633 = assay: MIC, twofold serial microdilution; format: cell-based; conditions: Bacillus subtilis, ATCC6633; standard strain, 18 h, 35 °C
Method: (§1) The antimicrobial activity of the compounds was tested on Gram-positive bacteria (Staphylococcus aureus NCTC 4163, Staphylococcus aureus ATCC 25923, Staphylococcus aureus ATCC 6538, Staphylococcus aureus ATCC 29213, Staphylococcus epidermidis ATCC 12228, Staphylococcus epidermidis ATCC 35984, Enterococcus faecalis ATCC 29212, Bacillus subtilis ATCC 6633, Bacillus cereus ATCC 11778, Micrococcus luteus ATCC 9341, Micrococcus luteus ATCC 10240); Gram-negative rods (Escherichia coli ATCC 10538, Escherichia coli ATCC 25922, Escherichia coli NCTC 8196, Proteus vulgaris NCTC 4635, Pseudomonas aeruginosa ATCC 15442, Pseudomonas aeruginosa NCTC 6749, Pseudomonas aeruginosa ATCC 27863, Bordetella bronchiseptica ATCC 4617) and yeasts (Candida albicans ATCC 10231, Candida albicans ATCC 90028, Candida parapsilosis ATCC 22019). Other microorganisms used were obtained from the collection of the Department of Pharmaceutical Microbiology, Medical University of Warsaw, Poland.
(§2) Antibacterial activity was examined by the disc-diffusion method under standard conditions using Mueller-Hinton II agar medium (Becton Dickinson) according to CLSI (previously NCCLS) guidelines. Antifungal activities were assessed using Mueller-Hinton agar + 2% glucose and 0.5 µg/mL Methylene Blue Dye Medium. Sterile filter paper discs (9 mm diameter, Whatman No 3 chromatography paper) were dripped with tested compound solutions (in DMSO) to load 400 μg of a given compound per disc. Dry discs were placed on the surface of appropriate agar medium. The results (diameter of the growth inhibition zone) were read after 18 h of incubation at 35 °C. Minimal Inhibitory Concentration (MIC) was tested by the twofold serial microdilution method (in 96-well microtiter plates) using Mueller-Hinton Broth medium (Beckton Dickinson) for bacteria or RPMI-1640 medium for Candida species according to CLSI guidelines. The stock solution of tested agent was prepared in DMSO and diluted in sterile water. Concentrations of tested agents ranged from 0.125 to 512 µg/mL. The final inoculum of all studied microorganisms was 10^5 CFU/ mL^−1 (colony forming units per mL). Minimal inhibitory concentrations (the lowest concentration of a tested agent that prevents visible growth of a microorganism) were read after 18 h (bacteria) or 24 h (yeasts) of incubation at 35 °C.

S. aureus ATCC 6538 = assay: MIC, twofold serial microdilution; format: cell-based; conditions: Staphylococcus aureus, ATCC6538; standard strain, 18 h, 35 °C
Method: as §1, §2

B. cereus ATCC 11778 = assay: MIC, twofold serial microdilution; format: cell-based; conditions: Bacillus cereus, ATCC11778; standard strain, 18 h, 35 °C
Method: as §1, §2

M. luteus ATCC 10240 = assay: MIC, twofold serial microdilution; format: cell-based; conditions: Micrococcus luteus, ATCC10240; standard strain, 18 h, 35 °C
Method: as §1, §2

M. luteus ATCC 9341 = assay: MIC, twofold serial microdilution; format: cell-based; conditions: Micrococcus luteus, ATCC9341; standard strain, 18 h, 35 °C
Method: as §1, §2

S. aureus ATCC 29213 = assay: MIC, twofold serial microdilution; format: cell-based; conditions: Staphylococcus aureus, ATCC29213; standard strain, 18 h, 35 °C
Method: as §1, §2

[1] = test system: S. epidermidis ATCC 35984; assay: MIC, twofold serial microdilution; format: cell-based; conditions: Staphylococcus epidermidis, ATCC35984; standard strain, 18 h, 35 °C
Method: as §1, §2

[2] = test system: S. epidermidis ATCC 12228; assay: MIC, twofold serial microdilution; format: cell-based; conditions: Staphylococcus epidermidis, ATCC12228; standard strain, 18 h, 35 °C
Method: as §1, §2

S. aureus ATCC 25923 = assay: MIC, twofold serial microdilution; format: cell-based; conditions: Staphylococcus aureus, ATCC25923; standard strain, 18 h, 35 °C
Method: as §1, §2

S. aureus NCTC 4163 = assay: MIC, twofold serial microdilution; format: cell-based; conditions: Staphylococcus aureus, NCTC4163; standard strain, 18 h, 35 °C
Method: as §1, §2

standard strains = assay: Antimicrobial activity against set of bacterial and fungal strains; format: cell-based; conditions: for MIC: range over standard strains
Method: as §1
as §2, with “The stock solution of tested agent was prepared in DMSO and diluted in sterile water. Concentrations of tested agents ranged from 0.125 to 512 µg/mL. The final inoculum of all studied microorganisms was 10^5 CFU/ mL^−1 (colony forming units per mL).” left out

[3] = Cytotoxicity against mock-infected MT-4 cells (MTT); format: cell-based, human; conditions: human, concentration reducing viability of mock-infected MT-4 cells by 50%
Method: (§3) Cell line supporting the multiplication of Human Immunodeficiency Virus type-1 (HIV-1) was the CD4+ human T-cells, derived from human hematological tumors, containing an integrated HTLV-1 genome (MT-4). Cells were purchased from American Type Culture Collection (ATCC). Human Immunodeficiency Virus type-1 (HIV-1) IIIB laboratory strain was obtained from the supernatant of the persistently infected H9/IIIB cells (NIH 1983).
Exponentially growing MT-4 cells were seeded at an initial density of 1 × 10^5 cells/mL in 96-well plates in RPMI-1640 medium, supplemented with 10% fetal bovine serum (FBS), 100 units/mL penicillin G and 100 μg/mL streptomycin. Cell cultures were then incubated at 37 °C in a humidified, 5% CO2 atmosphere, in the absence or presence of serial dilutions of tested compounds. Cell viability was determined after 96 h at 37 °C by the 3-(4,5-dimethylthiazol-2-yl)-2,5-diphenyl-tetrazolium bromide (MTT) method.

HIV-1 IIIB = assay: Anti-HIV-1 activity: protection of MT-4 cells from virus-induced cytopathogenicity (MTT); format: cell-based, Human Immunodeficiency Virus type-1; conditions: Human immunodeficiency virus 1, IIIB, MT4, 96 h; 50% protection of MT-4 cells from HIV-1 induced cytopathogenicity, MTT, 4-day incubation; read-out: HIV-1IIIB EC50
Source text: as §3
The activity of compounds against HIV-1 was based on inhibition of virus-induced cytopathogenicity in MT-4 cell acutely infected with a multiplicity of infection (m.o.i.) of 0.01. Briefly, 50 μL of RPMI containing 1 × 10^4 MT-4 cells were added to each well of flat-bottom microtiter trays, containing 50 μL of RPMI without or with serial dilutions of test compounds. Then, 20 μL of a HIV-1 suspension containing 100 CCID50 were added. After a 4-day incubation at 37 °C, cell viability was determined by the MTT method.

[4] = test system: S. epidermidis MRSE 409/11; assay: MIC, hospital methicillin-resistant strain; format: cell-based; conditions: Staphylococcus epidermidis
Method: as §1, §2

[5] = test system: S. epidermidis MRSE 406/11; assay: MIC, hospital methicillin-resistant strain; format: cell-based; conditions: Staphylococcus epidermidis
Method: as §1, §2

[6] = test system: S. epidermidis MRSE 422/11; assay: MIC, hospital methicillin-resistant strain; format: cell-based; conditions: Staphylococcus epidermidis
Method: as §1, §2

[7] = test system: S. epidermidis MRSE 412/11; assay: MIC, hospital methicillin-resistant strain; format: cell-based; conditions: Staphylococcus epidermidis
Method: as §1, §2

[8] = test system: S. epidermidis MRSE 407/11; assay: MIC, hospital methicillin-resistant strain; format: cell-based; conditions: Staphylococcus epidermidis
Method: as §1, §2

[9] = test system: S. epidermidis MRSE 403/11; assay: MIC, hospital methicillin-resistant strain; format: cell-based; conditions: Staphylococcus epidermidis
Method: as §1, §2

[10] = test system: S. epidermidis MRSE 405/11; assay: MIC, hospital methicillin-resistant strain; format: cell-based; conditions: Staphylococcus epidermidis
Method: as §1, §2

[11] = test system: S. epidermidis MRSE 404/11; assay: MIC, hospital methicillin-resistant strain; format: cell-based; conditions: Staphylococcus epidermidis
Method: as §1, §2

[12] = test system: S. epidermidis MRSE 411/11; assay: MIC, hospital methicillin-resistant strain; format: cell-based; conditions: Staphylococcus epidermidis
Method: as §1, §2

[13] = test system: S. epidermidis MRSE 413/11; assay: MIC, hospital methicillin-resistant strain; format: cell-based; conditions: Staphylococcus epidermidis
Method: as §1, §2

E. faecalis ATCC 29212 = assay: MIC, twofold serial microdilution; format: cell-based; conditions: Enterococcus faecalis, ATCC29212; standard strain, 18 h, 35 °C
Method: as §1, §2

staphylococci = assay: MIC against staphylococci; format: cell-based; conditions: moderate activity
Method: as §1, §2

Row | SMILES | MIC (B. subtilis ATCC 6633) [µg/mL] | MIC (S. aureus ATCC 6538) [µg/mL] | MIC (B. cereus ATCC 11778) [µg/mL] | MIC (M. luteus ATCC 10240) [µg/mL] | MIC (M. luteus ATCC 9341) [µg/mL] | MIC (S. aureus ATCC 29213) [µg/mL] | MIC [1] [µg/mL] | MIC [2] [µg/mL] | MIC (S. aureus ATCC 25923) [µg/mL] | MIC (S. aureus NCTC 4163) [µg/mL] | CC50 at 96 h [3] [µM] | pEC50 (HIV-1 IIIB) | melting point [°C] | MIC [4] [µg/mL] | MIC [5] [µg/mL] | MIC [6] [µg/mL] | MIC [7] [µg/mL] | MIC [8] [µg/mL] | MIC [9] [µg/mL] | MIC [10] [µg/mL] | also measured
1 | Cc1ccc(NC(=S)Nc2ccc(Cl)c([N+](=O)[O-])c2)cc1 [Compound 20, 1-(4-chloro-3-nitrophenyl)-3-(4-methylphenyl)thiourea] | 4 (≈ 12.4 µM) | 4 (≈ 12.4 µM) | 4 (≈ 12.4 µM) | 4 (≈ 12.4 µM) | 4 (≈ 12.4 µM) | 2 (≈ 6.22 µM) | 4 (≈ 12.4 µM) | 4 (≈ 12.4 µM) | 2 (≈ 6.22 µM) | 2 (≈ 6.22 µM) | 14.6 | < 4.84 | 156 to 158 | 16 (≈ 49.7 µM) | 16 (≈ 49.7 µM) | 32 (≈ 99.4 µM) | 32 (≈ 99.4 µM) | 16 (≈ 49.7 µM) | 16 (≈ 49.7 µM) | 16 (≈ 49.7 µM) | MIC (standard strains): 2 to 4 µg/mL (≈ 6.22 to 12.4 µM); MIC [11]: 16 µg/mL (≈ 49.7 µM); MIC [12]: 16 µg/mL (≈ 49.7 µM); MIC [13]: 16 µg/mL (≈ 49.7 µM)
2 | COc1ccc(NC(=S)Nc2ccc(Cl)c([N+](=O)[O-])c2)cc1 [Compound 21, 1-(4-chloro-3-nitrophenyl)-3-(4-methoxyphenyl)thiourea] |  |  |  |  |  |  |  |  |  |  | 35 | < 4.46 | 149 to 150.5 |  |  |  |  |  |  |  | activity against tested microorganisms (standard strains): devoid of activity
3 | C=C(C)CNC(=S)Nc1ccc(Cl)c([N+](=O)[O-])c1 [Compound 27, 1-(4-chloro-3-nitrophenyl)-3-(2-methylprop-2-en-1-yl)thiourea] | 16 (≈ 56 µM) | 16 (≈ 56 µM) | 8 (≈ 28 µM) | 32 (≈ 112 µM) | 16 (≈ 56 µM) | 16 (≈ 56 µM) | 16 (≈ 56 µM) | 16 (≈ 56 µM) | 16 (≈ 56 µM) | 16 (≈ 56 µM) | 15.5 | < 4.81 | 96 to 98 | 32 (≈ 112 µM) | 32 (≈ 112 µM) | 64 (≈ 224 µM) | 64 (≈ 224 µM) | 32 (≈ 112 µM) | 32 (≈ 112 µM) | 32 (≈ 112 µM) | MIC (E. faecalis ATCC 29212): 64 µg/mL (≈ 224 µM); MIC range towards staphylococci (staphylococci): 8 to 16 µg/mL; MIC [11]: 32 µg/mL (≈ 112 µM); MIC [12]: 32 µg/mL (≈ 112 µM); MIC [13]: 32 µg/mL (≈ 112 µM)
4 | CCCCc1ccc(NC(=S)Nc2ccc(Cl)c([N+](=O)[O-])c2)c(C)c1 [Compound 22, 1-(4-butyl-2-methylphenyl)-3-(4-chloro-3-nitrophenyl)thiourea] | 4 (≈ 10.6 µM) | 2 (≈ 5.29 µM) | 4 (≈ 10.6 µM) | 2 (≈ 5.29 µM) | 4 (≈ 10.6 µM) | 2 (≈ 5.29 µM) | 4 (≈ 10.6 µM) | 4 (≈ 10.6 µM) | 2 (≈ 5.29 µM) | 4 (≈ 10.6 µM) | 18.7 | < 4.73 | 67 to 69 | 4 (≈ 10.6 µM) | 8 (≈ 21.2 µM) | 8 (≈ 21.2 µM) | 8 (≈ 21.2 µM) | 4 (≈ 10.6 µM) | 4 (≈ 10.6 µM) | 4 (≈ 10.6 µM) | MIC (standard strains): 2 to 4 µg/mL (≈ 5.29 to 10.6 µM); MIC [11]: 8 µg/mL (≈ 21.2 µM); MIC [12]: 4 µg/mL (≈ 10.6 µM); MIC [13]: 8 µg/mL (≈ 21.2 µM)
